{
  "source": "patent US10172911B2",
  "about": "“Methods of modulating erythropoiesis with arginine vasopressin receptor 1B molecules” (The United States of America, as represented by the …, priority 2013, dated 2019)",
  "key": {"[1]": {"test_system": "CD34^+ cells from healthy donors", "assay": "CFU assay (E-CFU, GM-CFU) of human CD34+ cells in Methocult", "type": "cell-based", "conditions": "for effect of pathway inhibitor on CFU increase elicited by AVP: 10^−8 M AVP; for effect of pathway inhibitor on CFU increase elicited by AVPR1B agonist: 10^−8 M AVPR1B agonist; for effect of pathway inhibitor on GM-CFU increase induced by OXT: 10^−8 M OXT", "procedure": "CD34^+ cells from healthy donors were plated into semi-solid methylcellulose medium (Methocult) containing hematopoietic factors (GM-CSF 5 ng/ml, IL-3 5 ng/ml, SCF 50 ng/ml, EPO 2.5 U/ml).\nThe number of erythroid colony forming units (E-CFU) and granulocyte-macrophage colony forming units (GM-CFU) were determined based on morphological criteria on 7th and 14th days in culture."}, "[2]": {"test_system": "mouse bone marrow LSK cells", "assay": "BrdU cell proliferation assay, sorted mouse bone marrow LSK cells", "type": "cell-based", "conditions": "10^−8M-10^−14M, 2 days culture", "procedure": "(§1) Sorted mouse bone marrow LSK cells (10000 cells/well) were plated in a 96 well plate in Stemspan serum free expansion medium ([…] Technologies, Vancouver, Canada) with Pen/Strep, and the following hematopoietic factors: 100 ng/ml TPO, 50 ng/ml FLT3L, 50 ng/ml IL-3 and SCF 100 ng/ml (Peprotech, Rocky Hill, N.J.). Cells were treated with […] (Sigma-Aldrich, St. Louis, Mo.). When using human CD34^+ cells (5000 cells/well), human SCF, TPO, FLT3L and G-CSF (Peprotech, each at 50-100 ng/ml) were added to the Stemspan medium. Cells were treated with 10^−8M-10^−14M AVP. After 24 hours, BrdU at a 1:1000 concentration was added to the cultures and incorporation of BrdU was measured using the Cell Proliferation ELISA BrdU kit (Roche, Mannheim, Germany) after another 24 hours of incubation."}, "human CD34^+ cells": {"test_system": "human CD34^+ cells", "assay": "BrdU cell proliferation assay, human CD34+ cells", "type": "cell-based", "procedure": "as §1"}, "Human BMSCs": {"test_system": "Human BMSCs", "assay": "BMSC signalling (ERK phosphorylation, cAMP, intracellular Ca2+)", "type": "cell-based", "conditions": "BMSC cultures", "quoted_text": "For cAMP quantitation, 8×10^5 per well human BMSCs were plated in 6 well plates and left to attach overnight. Next day, the medium was changed and the cells were stimulated with AVP or deamino-Cys^1, D-Arg^8 AVP (DDAVP, a V2 receptor agonist) at 10^−6 M for 4 minutes. Cells were washed with PBS and lysed with R&D cell lysis buffer. Cyclic AMP was measured with the R&D cAMP Parameter assay kit (R&D Systems, Minneapolis, Minn.) according to manufacturer's instructions. Total protein concentrations of the cell lysates were measured using the Micro BCA Protein Assay kit (Pierce, Rockford, Ill.) and cAMP amount was normalized to 100 μg of total protein."}, "[3]": {"test_system": "human CD34+ hematopoietic progenitors", "assay": "Intracellular Ca2+ measurement in Fura-2 loaded human CD34+ hematopoietic progenitors", "type": "cell-based", "conditions": "human CD34+ cells; for intracellular calcium levels: agonist stimulation", "procedure": "Human BMSCs were loaded with Fura-2 and the cells were stimulated with AVP, or OXT. Intracellular Ca^2+ concentration was assayed as described before (Ely, J. A. et al. J Biol Chem 266, 18635-18641 (1991). To study their response to AVP and specific AVP receptor agonists and antagonists human CD34+ hematopoietic progenitors were Fura-2 loaded and Cytoplasmic Ca2+ measurements were performed in cells kept in suspension using a fluorescence spectrophotometer (Deltascan, Photon Technology International). Ratiometric measurements were recorded at 340/380 nm excitation and 500 nm emission and the ratios were plotted against time. Ionomycin (10 μM) was added at the end of each run to determine the maximum fluorescence ratio."}, "C57BL6 male mice": {"test_system": "C57BL6 male mice", "assay": "Hemorrhage anemia model, Alzet pump delivery", "type": "in vivo, mouse", "conditions": "hemorrhage, FIG. 9D", "procedure": "Mice were anesthetized with isoflurane. Twenty five percent of their calculated circulating blood volume (calculated based on Animal Research Advisory Committee Guidelines for survival bleeding of mice and rats, OACU, NIH) was drained from the retro-orbital plexus.\nThe reticulocyte ratio of peripheral blood was determined using the Retic-Count flow kit (BD Biosciences) according to the manufacturer's instructions. Hematocrit values were measured with an automated analyzer and microhematocrit tubes. The reticulocyte index was calculated as follows: reticulocyte ratio %/total gated cells×hematocrit/45.\nTo infuse vasopressin into the mice, AVP filled ALZET pumps were implanted subcutaneously on the dorsal aspect of the neck (5 ug/day, Alzet 1007D—7 days, 2002-14 days). Vasopressin was also given immediately and 6 hours later as a bolus injection (100 μg/kg). Alzet pumps were inserted subcutaneously. The dimensions and pump specification are: ALZET, (DURECT Corporation, Cupertino, Calif., USA) mini-osmotic pump models 1007D or 2002. The pumps deliver 0.5 μl/h of the desired substance for a for 2-week period. In some cases, erythropoietin antibody (100 μg/mice) was given before anesthesia with the corresponding control antibody. […] Following the initial hemorrhage blood samples were taken at 2, 4 and in some cases 6 days later to determine hematocrit and corrected reticulocyte values."}, "[4]": {"conditions": "per 1000 plated CD34+ cells, 10^−8 M"}},
  "note": "“Also recorded” adds a separate entry of the source.",
  "data": [
    {"molecule": "NC[C@H](O)c1ccc(O)c(O)c1", "note": "[noradrenaline]", "values": [
      {"measurement": "erythroid-colony forming unit (E-CFU) numbers", "setting": "[1]; [4]", "result": "significantly increased"}
    ]},
    {"molecule": "CC[C@H](C)[C@@H]1NC(=O)[C@H](Cc2ccc(O)cc2)NC(=O)[C@@H](N)CSSC[C@@H](C(=O)N2CCC[C@H]2C(=O)N[C@@H](CC(C)C)C(=O)NCC(N)=O)NC(=O)[C@H](CC(N)=O)NC(=O)[C@H](CCC(N)=O)NC1=O", "note": "[OXT, oxytocin]", "values": [
      {"measurement": "proliferation (BrdU incorporation) of mouse LSK cells", "setting": "[2]", "result": "induced proliferation; also recorded: stimulated LSK proliferation"},
      {"measurement": "proliferation (BrdU) of human CD34+ cells / HSPCs", "setting": "human CD34^+ cells", "result": "responded to AVP and OXT in much the same way as mouse LSK cells did"},
      {"measurement": "ERK phosphorylation", "setting": "Human BMSCs", "result": "induced ERK phosphorylation"},
      {"measurement": "intracellular calcium", "setting": "Human BMSCs", "result": "increase in intracellular Ca^2+ concentrations"},
      {"measurement": "granulocyte macrophage-colony forming unit (GM-CFU) numbers", "setting": "[1]; [4]", "result": "increased only GM-CFU numbers"}
    ]},
    {"molecule": "dCha^4AVP", "values": [
      {"measurement": "intracellular calcium levels", "setting": "[3]", "result": "increased intra-cellular Ca^2+ concentrations"},
      {"measurement": "colony formation", "setting": "[1]; 10^−8M", "result": "stimulated colony formation"}
    ]},
    {"molecule": "d[Leu4, Lys8]-VP [dLeu^4Lys^8-VP]", "values": [
      {"measurement": "recovery times", "setting": "C57BL6 male mice", "result": "significantly improved recovery times"}
    ]},
    {"molecule": "desGlyAVP", "values": [
      {"measurement": "proliferation (BrdU incorporation) of mouse LSK cells", "setting": "[2]", "result": "did not"}
    ]},
    {"molecule": "COc1ccc(S(=O)(=O)N2C(=O)[C@@](c3ccccc3OC)(N3C[C@H](O)C[C@H]3C(=O)N(C)C)c3cc(Cl)ccc32)c(OC)c1", "note": "[AVPR1B antagonist, SSR 149415 - Nelivaptan]", "values": [
      {"measurement": "block of the AVP-induced increase in calcium", "setting": "[3]; antagonist", "result": "could be blocked"},
      {"measurement": "block of AVP / AVPR1B agonist induced proliferation of human HSPCs", "setting": "human CD34^+ cells; antagonist", "result": "blocked; also recorded: both effects were seen"}
    ]},
    {"molecule": "NC(=O)CC[C@@H]1NC(=O)[C@H](Cc2ccccc2)NC(=O)[C@H](Cc2ccc(O)cc2)NC(=O)CCSSC[C@@H](C(=O)N2CCC[C@H]2C(=O)N[C@H](CCCN=C(N)N)C(=O)NCC(N)=O)NC(=O)[C@H](CC(N)=O)NC1=O", "note": "[AVPR2 agonist, deamino-Cys^1, D-Arg^8 AVP]", "values": [
      {"measurement": "cyclic AMP", "setting": "Human BMSCs; 10^−6 M for 4 minutes", "result": "increase in cyclic AMP"}
    ]},
    {"molecule": "[Phe2, Ile3, Orn8] Vasopressin [AVPR1A agonist]", "values": [
      {"measurement": "intracellular calcium levels", "setting": "[3]", "result": "did not respond"}
    ]},
    {"molecule": "1L-6-hydroxymethyl-chiro-inositol 2-(R)-2-O-methyl-3-O-octadecylcarbonate [HIMO]", "values": [
      {"measurement": "effect of pathway inhibitor on CFU increase elicited by AVP", "setting": "[1]; Dkk1 200 ng/ml, HIMO 10^−8 M", "result": "had no effect"},
      {"measurement": "effect of pathway inhibitor on CFU increase elicited by AVPR1B agonist", "setting": "[1]; Dkk1 200 ng/ml, HIMO 10^−8 M", "result": "had no effect"},
      {"measurement": "effect of pathway inhibitor on GM-CFU increase induced by OXT", "setting": "[1]; Dkk1 200 ng/ml, HIMO 10^−8 M", "result": "did block"},
      {"measurement": "GM-CFU numbers, inhibitor on its own", "setting": "[1]; Dkk1 200 ng/ml, HIMO 10^−8 M", "result": "Neither Dkk1 nor HIMO affected GM-CFU numbers on their own"}
    ]},
    {"molecule": "Dkk1: dickkopf related protein 1, Wnt pathway inhibitor (protein, UniProt O94907 32-266, looked up) Dickkopf-related protein 1: TLNSVLNSNAIKNLPPPLGGAAGHPGSAVSAAPGILYPGGNKYQTIDNYQPYPCAEDEECGTDEYCASPTRGGDAGVQICLACRKRRKRCMRHAMCCPGNYCKNGICVSSDQNHFRGEIEETITESFGNDHSTLDGYSRRTTLSSKMYHTKGQEGSVCLRSSDCASGLCCARHFWSKICKPVLKEGQVCTKHRRKGSHGLEIFQRCYCGEGLSCRIQKDHHQASNSSRLHTCQRH", "values": [
      {"measurement": "effect of pathway inhibitor on CFU increase elicited by AVP", "setting": "[1]; Dkk1 200 ng/ml, HIMO 10^−8 M", "result": "blocked the increase in GM-CFU numbers"},
      {"measurement": "effect of pathway inhibitor on CFU increase elicited by AVP", "setting": "[1]; Dkk1 200 ng/ml, HIMO 10^−8 M, listed as DKK-1", "result": "did block"},
      {"measurement": "effect of pathway inhibitor on CFU increase elicited by AVPR1B agonist", "setting": "[1]; Dkk1 200 ng/ml, HIMO 10^−8 M", "result": "blocked the increase in GM-CFU numbers"},
      {"measurement": "effect of pathway inhibitor on GM-CFU increase induced by OXT", "setting": "[1]; Dkk1 200 ng/ml, HIMO 10^−8 M", "result": "did not alter"}
    ]}
  ]
}
